Measurements taken from patent US20170080063A1, “HIGHLY SOLUBLE AQUAPORIN-4 EXTRACELLULAR LOOP C PEPTIDE IMMUNIZATION FOR TREATMENT OF NEUROMYELITIS OPTICA” (THE JOHNS HOPKINS UNIVERSITY, priority 2014, published 2017).
“Also recorded” adds a separate entry of the source.

Tests used:
AQP4 null mice = test: Antibody production against AQP4 extracellular loop peptides after immunization; type: in vivo, mouse; conditions: AQP4 null mice immunized with the peptides
T cells = test: T cell proliferation assay (3H-thymidine incorporation) with spleen cells of immunized mice; type: cell-based, mouse; conditions: for T cell response against the peptide: T cells from AQP4 null mice immunized with AQP4 loop peptides
mice = test: Neurological symptoms / clinical phenotype in mice given peptide; type: in vivo, mouse; conditions: for clinical phenotype / autoimmune neurological disease after immunization: immunized AQP4 null mice; for neurological symptoms (paralysis from spinal cord inflammation, visual impairment from optic nerve inflammation): mice administered the peptide
[1] = tested on: IL-17 and interferon-gamma (IFN-γ) cytokine-producing cells; test: ELISPOT assay of cytokine-producing cells; type: cell-based, mouse
Experimental: ELISPOT assay was used to determine the frequency of cytokine-producing cells in polarized and unpolarized cell cultures. The day before cells were to be harvested from immunized AQP4 null mice, the wells of an immobilon P-bottom 96-well plates (Multiscreen®HTS, 0.45 μm pore size; EMB Millipore, USA) were pre-wet with 35% ethanol for 30 seconds, washed three times with coating buffer, and coated with 50 μl of a 1:250 dilution of capture antibody, anti-IL17 (Th17), provided with ELISPOT Ready-Set-Go kits (eBioscience). Plates were covered and incubated overnight at 4° C. Wells were then washed twice with coating buffer and once with complete media; plates were stored in the incubator until cells were prepared. Spleen and lymph node cells were prepared as described above and prepared with and without polarizing conditions. Harvested cells were 2-fold serially diluted in media containing 3×10^7 irradiated splenocytes (irradiated with 3,500 rads) as antigen-presenting cells (APCs); APCs mixed 12:1 with 1.25×10^5 lymph node cells per well yielded the most well-defined spots. After overnight in culture, wells were washed (TBS+0.05% Tween®-20). Detection antibody was diluted 1:250 in diluents provided in the kit and 50 μl applied to each well for 2 hours at RT. After washing, streptavidin-alkaline phosphatase was added to each well (1:2500; Sigma) for 45 minutes. After further washing, signal was developed with development solution containing BCIP and NBT (i.e. 150 mM Tris-HCl, 5 mM MgCl2, 100 mM NaCl, pH9.5 supplemented with 4 mM levamisole (Sigma), 0.15 mg/ml 5-bromo-4-chloro-3-indolyl-phosphate, and 0.36 mg/ml 4-nitro blue tetrazolium chloride (Roche) for 10 minutes at room temperature in the dark. Reaction was stopped by washing with PBS then distilled H2O before air drying. Spots were imaged with an Immunospot Series 3 Analyzer (Cellular Technology, Ltd.) and counted using Image J and the “find Maxima” function. Results are expressed as the mean of triplicate values (±standard error of the mean, SEM) adjusted to per 10^6 cells per well. Student's t-test was performed on data; p<0.05 was considered statistically significant.

[2] = after polarization to Th17 phenotype, exposed to peptide
[3] = after polarization to Th17 phenotype, exposed to peptide, listed as AQP4135-53
[4] = unpolarized cell culture exposed to peptide, versus no stimulation
[5] = unpolarized cell culture exposed to peptide, versus no stimulation, listed as AQP4135-53

Substance | antibody production against the loop peptide (AQP4 null mice) | T cell response against the peptide (T cells) | clinical phenotype / autoimmune neurological disease after immunization (mice) | neurological symptoms (paralysis from spinal cord inflammation, visual impairment from optic nerve inflammation) (mice) | other results
GTEKPLPV (listed as Homo sapiens) [loop A, AQP4 extracellular loop A peptide (human 56-69 used)] | no evidence of antibody production |  |  |  | 
MOG peptide 35-55: myelin-oligodendrocyte glycoprotein (MOG) peptide 35-55 (MEVGWYRSPFSRVVHLYRNGK; UniProt Q61885 63-83, looked up, fragment) [reference compound] |  |  |  |  | T cell proliferative activity (incorporation of tritiated-thymidine) (T cells; T cells from control wildtype mice (wt-MOG) immunized with MOG peptide 35-55): showed proliferative activity
TPPSVVGGLGVTMVHGNLTAG (listed as Homo sapiens) [loop C, peptide corresponding to the second extracellular loop of AQP4] | No evidence of antibody production | robust T cell response | no clinical phenotype |  | T cell response against the peptide (T cells; listed as loop C peptide): robust T cell response; also recorded: stimulated a T cell response
GILYLVTPPSVVGGLGVTMV [SEQ ID NO: 9, reference compound] |  |  |  | no such neurological symptoms | 
LVTPPSVVGGLGVTMVHGN [SEQ ID NO: 8] | no evidence of antibody production | remarkable T cell response; also recorded: robust T cell response; also recorded: robust reaction | did not develop autoimmune neurological disease | development of phenotypes | number of IFN-γ producing cells [1, 2]: barely detectable; number of IL-17 producing cells [1, 2]: doubled; number of IFN-γ producing cells [1, 3]: nearly undetectable; number of IL-17 producing cells [1, 3]: almost doubled; number of IFN-γ producing cells [1, 4]: significant number; number of IL-17 producing cells [1, 4]: significant number; number of IFN-γ producing cells [1, 5]: significant levels; number of IL-17 producing cells [1, 5]: significant levels
GNWENH (listed as Homo sapiens) [loop E, AQP4 extracellular loop E peptide (human 212-30 used)] | no evidence of antibody production |  |  |  | 
